Assays:
Assay type in all cases: cell-based, human
SR = assay: NCI-60 cytotoxicity, SR; details: SR (Leukemia), 72 h
Procedure: (§1) Briefly, human NCI-60 cancer cell lines were counted with a Vi-CELL Cell Viability Analyzer (Beckman Coulter), resuspended in RPMI-1640 medium containing 10% FBS and 1% penicillin/streptomycin and dispensed in wells of 96-well microplates (3000 cells per well for solid tumor and 5000 per well for blood tumor cells) using an epMotion 5075 liquid handler (Eppendorf) under a sterile condition, followed by incubation overnight at 37° C. in 5% (v/v) CO2. Cells were exposed to compounds in a dose-dependent manner for 72 h. An MTS dye (20 uL per well) was added to each well. Cell viability was determined by tetrazolium conversion to its […] dye. […] Each experiment was performed in duplicate. […] H9 cells are more sensitive to drugs, therefore instead of 72 hours, we choose 48 hour the incubation time for H9 cells.
(§2) IC50 values were determined using […] software (Biosoft).

HCT-15 = assay: NCI-60 cytotoxicity, HCT-15; details: HCT-15 (Colon), 72 h
Procedure: as §1, §2

OVCAR-4 = assay: NCI-60 cytotoxicity, OVCAR-4; details: OVCAR-4 (Ovarian), 72 h
Procedure: as §1, §2

786-0 = assay: NCI-60 cytotoxicity, 786-0; details: 786-0 (Renal), 72 h
Procedure: as §1, §2

NCI/ADR-RES = assay: NCI-60 cytotoxicity, NCI/ADR-RES; details: NCI/ADR-RES (Ovarian), 72 h
Procedure: as §1, §2

LOX IMVI = assay: NCI-60 cytotoxicity, LOX IMVI; details: LOX IMVI (Melanoma), 72 h
Procedure: as §1, §2

HL60 = assay: NCI-60 cytotoxicity, HL60; details: HL60 (AML), 72 h
Procedure: as §1, §2

BT-S49 = assay: NCI-60 cytotoxicity, BT-S49; details: BT-S49 (Breast), 72 h
Procedure: as §1, §2

NCI-H552 = assay: NCI-60 cytotoxicity, NCI-H552; details: NCI-H552 (Lung), 72 h
Procedure: as §1, §2

MDA-MB-231 = assay: NCI-60 cytotoxicity, MDA-MB-231; details: MDA-MB-231 (Breast), 72 h
Procedure: as §1, §2

MDA-MB-435 = assay: NCI-60 cytotoxicity, MDA-MB-435; details: MDA-MB-435 (Melanoma), 72 h
Procedure: as §1, §2

K-562 = assay: NCI-60 cytotoxicity, K-562; details: K-562 (CML), 72 h
Procedure: as §1, §2

CAKI-1 = assay: NCI-60 cytotoxicity, CAKI-1; details: CAKI-1 (Renal), 72 h
Procedure: as §1, §2

SKOV3 = assay: NCI-60 cytotoxicity, SKOV3; details: SKOV3 (Ovarian), 72 h
Procedure: as §1, §2

NCI-H322M = assay: NCI-60 cytotoxicity, NCI-H322M; details: NCI-H322M (Lung), 72 h
Procedure: as §1, §2

SNB-19 = assay: NCI-60 cytotoxicity, SNB-19; details: SNB-19 (CNS), 72 h
Procedure: as §1, §2

A549 = assay: NCI-60 cytotoxicity, A549; details: A549 (Lung), 72 h
Procedure: as §1, §2

SK-MEL-2 = assay: NCI-60 cytotoxicity, SK-MEL-2; details: SK-MEL-2 (Melanoma), 72 h
Procedure: as §1, §2

DU-145 = assay: NCI-60 cytotoxicity, DU-145; details: DU-145 (Prostate), 72 h
Procedure: as §1, §2

NCI-H23 = assay: NCI-60 cytotoxicity, NCI-H23; details: NCI-H23 (Lung), 72 h
Procedure: as §1, §2

IGR-OV1 = assay: NCI-60 cytotoxicity, IGR-OV1; details: IGR-OV1 (Ovarian), 72 h
Procedure: as §1, §2

T-47D = assay: NCI-60 cytotoxicity, T-47D; details: T-47D (Breast), 72 h
Procedure: as §1, §2

HCT-116 = assay: NCI-60 cytotoxicity, HCT-116; details: HCT-116 (Colon), 72 h
Procedure: as §1, §2

SK-MEL-5 = assay: NCI-60 cytotoxicity, SK-MEL-5; details: SK-MEL-5 (Melanoma), 72 h
Procedure: as §1, §2

OVCAR-3 = assay: NCI-60 cytotoxicity, OVCAR-3; details: OVCAR-3 (Ovarian), 72 h
Procedure: as §1, §2

PC-3 = assay: NCI-60 cytotoxicity, PC-3; details: PC-3 (Prostate), 72 h
Procedure: as §1, §2

RPMI-8226 = assay: NCI-60 cytotoxicity, RPMI-8226; details: RPMI-8226 (MM), 72 h
Procedure: as §1, §2

SW-620 = assay: NCI-60 cytotoxicity, SW-620; details: SW-620 (Colon), 72 h
Procedure: as §1, §2

MDA-MB-468 = assay: NCI-60 cytotoxicity, MDA-MB-468; details: MDA-MB-468 (Breast), 72 h
Procedure: as §1, §2

OVCAR-5 = assay: NCI-60 cytotoxicity, OVCAR-5; details: OVCAR-5 (Ovarian), 72 h
Procedure: as §1, §2

MALME-3M = assay: NCI-60 cytotoxicity, MALME-3M; details: MALME-3M (Melanoma), 72 h
Procedure: as §1, §2

RXF 393 = assay: NCI-60 cytotoxicity, RXF 393; details: RXF 393 (Renal), 72 h
Procedure: as §1, §2

EKVX = assay: NCI-60 cytotoxicity, EKVX; details: EKVX (Lung), 72 h
Procedure: as §1, §2

## Cc1ccc([N+](=O)[O-])cc1S(=O)(=O)N(C)/N=C/c1cnc2ccc(Br)cn12 [Compound 1]
SR; Homo sapiens
  IC50: < 1 nM
HCT-15; Homo sapiens
  IC50: 8 nM
OVCAR-4; Homo sapiens
  IC50: 403 nM
786-0; Homo sapiens
  IC50: 8 nM
NCI/ADR-RES; Homo sapiens
  IC50: 24 nM
LOX IMVI; Homo sapiens
  IC50: 73 nM
HL60; Homo sapiens, HL-60
  IC50: 5 nM
BT-S49; Homo sapiens
  IC50: < 1 nM
NCI-H552; Homo sapiens
  IC50: > 10000 nM
MDA-MB-231; Homo sapiens
  IC50: 466 nM
MDA-MB-435; Homo sapiens
  IC50: > 10000 nM
K-562; Homo sapiens, K562
  IC50: 416 nM
CAKI-1; Homo sapiens
  IC50: 350 nM
SKOV3; Homo sapiens, SK-OV-3
  IC50: 291 nM
NCI-H322M; Homo sapiens
  IC50: 1500 nM
SNB-19; Homo sapiens
  IC50: 385 nM
A549; Homo sapiens
  IC50: 2660 nM
SK-MEL-2; Homo sapiens
  IC50: 317 nM
DU-145; Homo sapiens
  IC50: 1 nM
NCI-H23; Homo sapiens
  IC50: > 10000 nM
IGR-OV1; Homo sapiens, IGROV-1
  IC50: 251 nM
T-47D; Homo sapiens, T47D
  IC50: > 10000 nM
HCT-116; Homo sapiens
  IC50: 1 nM
SK-MEL-5; Homo sapiens
  IC50: > 10000 nM
OVCAR-3; Homo sapiens
  IC50: 71 nM
PC-3; Homo sapiens
  IC50: 20 nM
RPMI-8226; Homo sapiens
  IC50: 77 nM
SW-620; Homo sapiens
  IC50: 74 nM
MDA-MB-468; Homo sapiens
  IC50: 103 nM
OVCAR-5; Homo sapiens
  IC50: 40 nM
MALME-3M; Homo sapiens
  IC50: 116 nM
RXF 393; Homo sapiens
  IC50: 80 nM
EKVX; Homo sapiens
  IC50: 1220 nM

## O=C1NC(=NCc2cccs2)S/C1=C\c1ccc2ncccc2c1 [Compound A10]
SR
  IC50: 372 nM
HCT-15
  IC50: 3840 nM
OVCAR-4
  IC50: > 10000 nM
786-0
  IC50: 7770 nM
NCI/ADR-RES
  IC50: 3670 nM
LOX IMVI
  IC50: 4400 nM
HL60
  IC50: 1140 nM
BT-S49
  IC50: 4780 nM
NCI-H552
  IC50: > 10000 nM
MDA-MB-231
  IC50: > 10000 nM
MDA-MB-435
  IC50: 6600 nM
K-562
  IC50: > 10000 nM
CAKI-1
  IC50: > 10000 nM
SKOV3
  IC50: > 10000 nM
NCI-H322M
  IC50: > 10000 nM
SNB-19
  IC50: > 10000 nM
A549
  IC50: > 10000 nM
SK-MEL-2
  IC50: > 10000 nM
DU-145
  IC50: 1380 nM
NCI-H23
  IC50: > 10000 nM
IGR-OV1
  IC50: > 10000 nM
T-47D
  IC50: 6190 nM
HCT-116
  IC50: 3200 nM
SK-MEL-5
  IC50: > 10000 nM
OVCAR-3
  IC50: > 10000 nM
PC-3
  IC50: > 10000 nM
RPMI-8226
  IC50: 9000 nM
SW-620
  IC50: > 10000 nM
MDA-MB-468
  IC50: 6970 nM
OVCAR-5
  IC50: > 10000 nM
MALME-3M
  IC50: > 10000 nM
RXF 393
  IC50: > 10000 nM
EKVX
  IC50: > 10000 nM

## O=C1NCCc2[nH]c(-c3ccncc3)cc21 [Compound A11]
SR
  IC50: 286 nM
HCT-15
  IC50: 2540 nM
OVCAR-4
  IC50: > 10000 nM
786-0
  IC50: 9300 nM
NCI/ADR-RES
  IC50: 1440 nM
LOX IMVI
  IC50: 3580 nM
HL60
  IC50: 247 nM
BT-S49
  IC50: 705 nM
NCI-H552
  IC50: > 10000 nM
MDA-MB-231
  IC50: > 10000 nM
MDA-MB-435
  IC50: > 10000 nM
K-562
  IC50: > 10000 nM
CAKI-1
  IC50: > 10000 nM
SKOV3
  IC50: > 10000 nM
NCI-H322M
  IC50: > 10000 nM
SNB-19
  IC50: > 10000 nM
A549
  IC50: > 10000 nM
SK-MEL-2
  IC50: > 10000 nM
DU-145
  IC50: 2260 nM
NCI-H23
  IC50: > 10000 nM
IGR-OV1
  IC50: > 10000 nM
T-47D
  IC50: > 10000 nM
HCT-116
  IC50: 1260 nM
SK-MEL-5
  IC50: > 10000 nM
OVCAR-3
  IC50: 2520 nM
PC-3
  IC50: 9180 nM
RPMI-8226
  IC50: > 10000 nM
SW-620
  IC50: 3930 nM
MDA-MB-468
  IC50: 1770 nM
OVCAR-5
  IC50: 5310 nM
MALME-3M
  IC50: 3050 nM
RXF 393
  IC50: 3470 nM
EKVX
  IC50: > 10000 nM
